Values quoted from earlier work in patent US11066360B2, “Human plasma kallikrein inhibitors” (priority 2015, dated 2021).
Where a SMILES comes first, the peptide text is derived from it.

Experiments:
[1] = tested on: LPS- or bacterial-induced sepsis in animals
[2] = tested on: patients with hereditary angioedema (HAE); conditions: human, in vivo
[3] = tested on: mouse model of middle cerebral artery occlusion (MCAO)

| Compound | lesions [1] | vascular permeability in multiple organs [1] | other results |
| --- | --- | --- | --- |
| NC(N)=NCCC[C@H](NC(=O)[C@H](Cc1ccccc1)NC(=O)[C@H]1CCCN1)C(=O)CCl [CMK, H-D-Pro-Phe-Arg-chloromethylketone] (HELM PEPTIDE1{[dP].F.R.[ClC[*:1]]}$$$$V2.0) | reduce | reduce |  |
| NC(N)=NCCC[C@@H](N)C(=O)N[C@@H](CCCN=C(N)N)C(=O)N1CCC[C@H]1C(=O)N1C[C@H](O)C[C@H]1C(=O)NCC(=O)N[C@@H](Cc1cccs1)C(=O)N[C@@H](CO)C(=O)N1Cc2ccccc2C[C@@H]1C(=O)N1[C@H](C(=O)N[C@@H](CCCN=C(N)N)C(=O)O)C[C@@H]2CCCC[C@@H]21 [Icatibant] |  |  | treating HAE [2]: effective |
| Cl.NCC1CCC(C(=O)N[C@@H](Cc2ccccc2)C(=O)Nc2ccc(CC(=O)O)cc2)CC1 (some centres unmarked) [PKSI-527] |  |  | joint swelling (rat models of arthritis): reduce |
| C1-inhibitor: a physiological inhibitor (C1-inhibitor) [Compound C1-inhibitor] | reduce | reduce | infarct size [3]: reduced; clinical improvement in sepsis patients (sepsis patients): Clinical improvement |
